Reference: patent US12678412B2, “Substituted tolans for the modulation of microbial colonization” (BioMendics, LLC, priority 2017, dated 2026)

Experiments:
S. typhimurium TA1535 = assay: Dose range finding colony forming assay, strain TA1535 without metabolic activation; assay type: cell-based
Method: A series of dose range finding assays were performed with five bacterial strains, S. typhimurium TA97a, TA98, TA100, TA1535, and E. coli WP2 uvrA pKM101, with and without metabolic activation at three plates per dose. The following doses, along with positive and negative controls, were tested: 5000, 2500, 1250, 500, 250, 125, 50, 20, 10, 5, 2, 1, and 0.2 μg/plate. The plates were evaluated for toxicity (a decrease in plate counts with increasing dose and/or a visible thinning of the background lawn) and for precipitation of the test article. Metabolic activation was included in some samples by adding phenobarbital/benzoflavone-induced rat liver S9 fractions with cofactors (S9 mix). Prior to use, freshly thawed aliquots of rat liver S9 were mixed with a sterile cofactor mix. The S9 mix contains a 10% liver S9 concentration and was refrigerated or stored on ice until used. When testing with metabolic activation, the S9 mix was used in the assay tube in place of phosphate buffer.
Dosing formulations were prepared to deliver all doses in a constant volume of 0.1 mL. The highest dose was prepared from test article weighed to the nearest 0.1 mg and the remaining formulations were prepared as serial dilutions from the high dose stock formulation. Using a permanent marking pen or computer printed labels, assay plates were labeled with the project and study numbers and the date. Assay plates and tubes were labeled with a unique identifier, which was used to match the assay tubes with the properly identified minimal glucose agar plate.
The pre-incubation method was used to perform the assay. The assay mix consisted of 0.1 mL of the test article formulation or control article, 0.5 mL S9 mix or phosphate buffer, and 0.1 mL of bacterial culture. Assay tubes were incubated at 37±1° C. with gentle agitation for 20±1 minutes, then 2.0-2.5 mL top agar was added to the assay mix and the top agar/assay mix poured onto appropriately labeled minimal glucose agar plates. Once the top agar hardened, the plates were inverted and incubated at 37±1° C. for 48±2 hours. Plates were counted with the Sorcerer (v. 2.2)/Ames Study Manager (v. 1.2.4) system from Perceptive Instruments (Suffolk, UK). With this system, plate counts are automatically transferred from the plate imager (Sorcerer) to a Study Manager spreadsheet, and the data are stored in a secure manner on an Oracle database. Some plates were hand counted, e.g., if sample precipitate interferes with automatic counting or toxicity results in the formation of microcolonies, in which case, counts for these plates were entered into the spreadsheet manually. Plates were scored also with the extent of colonization by a post fix code.

[1] = system: Candida albicans ATCC 64550; assay: Colony forming assay, spread plate, Candida albicans; assay type: cell-based; conditions: Formulation C, compared to low dose, vehicle, Tobramycin and untreated control, 24 h, FIG. 8
Method: A fresh culture of pathogenic isolate was used in these examples. The bacterial strains used were Methicillin Resistant Staphylococcus aureus (MRSA USA 300), Pseudomonas aeruginosa ATCC 27312, and Candida albicans ATCC 64550.
FIG. 5 illustrates the spread plate method used in these examples. In sum, agar plates were made, bacteria were diluted to 10^6 or 10^8 CFU/mL, bacteria and drug were mixed together and then plated. Glass spreading beads were used because they give a better bacterial spread. Plates were incubated for 24 hrs then the colonies that formed were counted.
Proliferating cultures of Pseudomonas aeruginosa (PA, ATCC 27312) and Candida albicans (CA, ATCC 64550) were used in a colony forming assay. Freeze-dried bacteria cultures were recovered by swabbing a 3-cm diameter growth area and resuspending it to obtain a final inoculum suspension of approximately 10^6 CFU/mL. The concentration was confirmed using historical optical density measurements. […] Plates were photographed and counted. […]
Colony counts for each treatment were tabulated and the Log of the colony forming units/mL (Log CFU/mL) were determined. The mean and standard deviation of the Log CFU/mL were calculated for each treatment. […]

MRSA USA 400 biofilm = assay: Biofilm inhibition assay (prevention of biofilm formation); assay type: cell-based, Staphylococcus aureus; conditions: overnight 37° C.
Method: Proliferating cultures of Methicillin Resistant Staphylococcus aureus (MRSA, USA 400) were used in a colony forming assay. Frozen stock cultures of MRSA USA 400 were thawed and grown overnight in tryptic soy broth (TSB) with shaking at 37° C. The overnight culture (0.5-1.0 mL) was added to 100 mL TSB and grown at 37° C. with shaking and monitored for an optical density of 0.55-0.60 in order to obtain a final inoculum suspension of approximately 10^8 CFU/mL.
For the biofilm inhibition assay, 100 μL of MRSA USA 400 inoculum (10^8 CFU/mL) was plated with 100 μL of each BM3103 drug concentration in a 96 well plate. A 0.1 M stock of BM3103 was dissolved in ethanol and serially diluted in TSB across a 96 well plate to obtain final concentrations of 1 mM to 0.002 mM. The drug treated inoculum grew overnight at 37° C. without shaking.

In the case of `COc1ccc(C#Cc2ccc(O)cc2)cc1` [BM3103, 4-hydroxy-4′-methoxytolan], the Colony forming units/plate (S. typhimurium TA1535; 0.2 μg/plate) is reported as 12.0 colony forming units/plate, the Individual colony counts (S. typhimurium TA1535; 0.2 μg/plate) is reported as 12 and the Colony forming units/plate (S. typhimurium TA1535; 1 μg/plate) is reported as 11.0 colony forming units/plate. For the same compound, the Individual colony counts (S. typhimurium TA1535; 1 μg/plate) was 11, the Colony forming units/plate (S. typhimurium TA1535; 2 μg/plate) was 10.0 colony forming units/plate and the Individual colony counts (S. typhimurium TA1535; 2 μg/plate) was 10. The Colony forming units/plate (S. typhimurium TA1535; 5 μg/plate) was 6.0 colony forming units/plate, the Individual colony counts (S. typhimurium TA1535; 5 μg/plate) was 6 and the Colony forming units/plate (S. typhimurium TA1535; 10 μg/plate) was 0.0 colony forming units/plate. For the same compound, the Individual colony counts (S. typhimurium TA1535; 10 μg/plate) was 0, the “Plate postfix code (individual colony counts)” value (shortened to “Plate postfix code”) (S. typhimurium TA1535; 10 μg/plate) was “A T” and the Colony forming units/plate (S. typhimurium TA1535; 20 μg/plate) was 0.0 colony forming units/plate. For the same compound, the Individual colony counts (S. typhimurium TA1535; 20 μg/plate) was 0, the Colony forming units/plate (S. typhimurium TA1535; 50 μg/plate) was 0.0 colony forming units/plate and the Individual colony counts (S. typhimurium TA1535; 50 μg/plate) was 0. The Colony forming units/plate (S. typhimurium TA1535; 125 μg/plate) was 0.0 colony forming units/plate, the Individual colony counts (S. typhimurium TA1535; 125 μg/plate) was 0 and the Colony forming units/plate (S. typhimurium TA1535; 250 μg/plate) was 0.0 colony forming units/plate. For the same compound, the Individual colony counts (S. typhimurium TA1535; 250 μg/plate) was 0, the Colony forming units/plate (S. typhimurium TA1535; 500 μg/plate) was 0.0 colony forming units/plate and the Individual colony counts (S. typhimurium TA1535; 500 μg/plate) was 0. The Colony forming units/plate (S. typhimurium TA1535; 1250 μg/plate) was 0.0 colony forming units/plate, the Individual colony counts (S. typhimurium TA1535; 1250 μg/plate) was 0 and the “Plate postfix code” value (S. typhimurium TA1535; 1250 μg/plate) was “A P”. For the same compound, the Colony forming units/plate (S. typhimurium TA1535; 2500 μg/plate) was 0.0 colony forming units/plate, the Individual colony counts (S. typhimurium TA1535; 2500 μg/plate) was 0 and the “Plate postfix code” value (S. typhimurium TA1535; 2500 μg/plate) was “A P”. The Colony forming units/plate (S. typhimurium TA1535; 5000 μg/plate) was 0.0 colony forming units/plate, the Individual colony counts (S. typhimurium TA1535; 5000 μg/plate) was 0 and the “Plate postfix code” value (S. typhimurium TA1535; 5000 μg/plate) was “A P”. The “Reduction of CA counts” value ([1]; high dose 0.5% w/v, 22 mM) was “about 4 fold”, the “Reduction of CA counts” value ([1]; medium dose 0.25% w/v, 11 mM) was “about 4 fold” and the “Biofilm formation of MRSA USA 400” value (MRSA USA 400 biofilm; 0.008 mM, FIG. 12B) was “Mild biofilm formation”. For the same compound, the “Biofilm formation of MRSA USA 400” value (MRSA USA 400 biofilm; 0.625 mM, FIG. 12A) was “inhibits biofilm formation of MRSA USA 400 completely”, the “Biofilm formation of MRSA USA 400” value (MRSA USA 400 biofilm; about 0.002 mM, FIGS. 12C-12D) was “no effect on biofilm formation” and the “Concentrations that completely inhibit biofilm formation” value (MRSA USA 400 biofilm) was “above 0.0625 mM”.
